{
  "source": "ChEMBL document CHEMBL1127363",
  "about": "“Structure-activity relationship studies of N-sulfonyl analogs of cocaine: role of ionic interaction in cocaine binding” (J Med Chem, 1994)",
  "key": {"[1]": {"biological_target": "T1, Sodium-dependent dopamine transporter (Rattus norvegicus, UniProt P23977)", "T1 sequence (P23977 whole entry)": "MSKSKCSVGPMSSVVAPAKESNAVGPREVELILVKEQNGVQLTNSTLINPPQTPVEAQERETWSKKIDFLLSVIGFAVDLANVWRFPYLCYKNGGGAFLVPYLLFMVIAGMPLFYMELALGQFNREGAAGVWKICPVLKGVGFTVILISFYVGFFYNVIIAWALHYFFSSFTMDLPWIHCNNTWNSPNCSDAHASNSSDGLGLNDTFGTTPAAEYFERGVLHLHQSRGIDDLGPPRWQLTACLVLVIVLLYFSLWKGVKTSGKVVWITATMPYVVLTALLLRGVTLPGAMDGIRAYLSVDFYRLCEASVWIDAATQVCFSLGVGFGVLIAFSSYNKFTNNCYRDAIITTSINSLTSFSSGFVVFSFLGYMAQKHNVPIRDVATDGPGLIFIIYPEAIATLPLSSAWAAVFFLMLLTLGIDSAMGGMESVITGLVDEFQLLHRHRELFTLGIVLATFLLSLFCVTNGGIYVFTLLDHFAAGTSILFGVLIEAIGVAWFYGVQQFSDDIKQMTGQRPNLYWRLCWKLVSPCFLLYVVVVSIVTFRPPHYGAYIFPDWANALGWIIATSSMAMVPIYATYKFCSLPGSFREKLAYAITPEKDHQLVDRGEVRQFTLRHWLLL", "experiment": "Binding affinity was tested by measuring its ability to displace [3H]-mazindol binding against dopamine transporter (DAT) of rat striatal membranes"}, "Rattus norvegicus [2]": {"species": "Rattus norvegicus", "experiment": "Compound was tested to inhibit high affinity uptake of [3H]- -dopamine into striatal nerve endings (synaptosomes)", "type": "functional, Brain"}, "Rattus norvegicus [3]": {"species": "Rattus norvegicus", "experiment": "Inhibition of high affinity uptake of [3H]- -dopamine into striatal nerve endings (synaptosomes) at 300 uM", "type": "functional", "conditions": "Brain"}, "[4]": {"biological_target": "Sodium-dependent dopamine transporter (Rattus norvegicus) (UniProt P23977)", "sequence (P23977 whole entry)": "as above", "experiment": "Inhibition of [3H]mazindol binding to dopamine transporter (DAT) of rat striatal membranes at 100 uM", "type": "cell membranes", "conditions": "Membrane"}, "Rattus norvegicus [5]": {"species": "Rattus norvegicus", "experiment": "Compound was tested to inhibit high affinity uptake of [3H]dopamine into striatal nerve endings (synaptosomes)", "type": "functional, Brain"}, "[6]": {"biological_target": "T1, Sodium-dependent dopamine transporter", "experiment": "Binding affinity was tested by measuring its ability to displace [3H]mazindol binding against dopamine transporter (DAT) of rat striatal membranes"}, "Rattus norvegicus [7]": {"species": "Rattus norvegicus", "experiment": "Compound was tested to inhibit high affinity uptake of [3H]- -Dopamine into striatal nerve endings (synaptosomes)", "type": "functional, Brain"}},
  "data": [
    {"smiles": "COC(=O)[C@@H]1C2CCC(C[C@@H]1OC(=O)c1ccccc1)N2S(=O)(=O)C(F)(F)F", "note": "(some centres undefined)", "values": [
      {"measurement": "Ki", "setting": "[1]", "result": 0.33, "unit": "µM"},
      {"measurement": "Ki", "setting": "Rattus norvegicus [2]", "result": 0.76, "unit": "µM"}
    ]},
    {"smiles": "COC(=O)[C@@H]1C2CCC(C[C@@H]1OC(=O)c1ccccc1)N2S(=O)(=O)c1ccc([N+](=O)[O-])cc1", "note": "(some centres undefined)", "values": [
      {"measurement": "Ki", "setting": "[1]", "result": 5.72, "unit": "µM"},
      {"measurement": "inhibition", "setting": "Rattus norvegicus [3]", "result": 72, "unit": "%"},
      {"measurement": "inhibition", "setting": "[4]", "result": 80, "unit": "%"},
      {"measurement": "Ki", "setting": "Rattus norvegicus [2]", "result": 18.8, "unit": "µM"}
    ]},
    {"smiles": "COC(=O)[C@@H]1C2CCC(C[C@@H]1OC(=O)c1ccccc1)N2S(=O)(=O)c1ccc(OC)cc1", "note": "(some centres undefined)", "values": [
      {"measurement": "Ki", "setting": "[1]", "result": 6.82, "unit": "µM"},
      {"measurement": "Ki", "setting": "Rattus norvegicus [2]", "result": 16.4, "unit": "µM"}
    ]},
    {"smiles": "COC(=O)[C@@H]1C2CCC(C[C@@H]1OC(=O)c1ccccc1)N2S(C)(=O)=O", "note": "(some centres undefined)", "values": [
      {"measurement": "Ki", "setting": "Rattus norvegicus [5]", "result": 1.97, "unit": "µM"},
      {"measurement": "Ki", "setting": "[6]", "result": 1.29, "unit": "µM"}
    ]},
    {"smiles": "COC(=O)[C@@H]1C2CC[C@@H](C[C@@H]1OC(=O)c1ccccc1)N2S(=O)(=O)N=C=O", "values": [
      {"measurement": "Ki", "setting": "[6]", "result": 0.12, "unit": "µM"},
      {"measurement": "Ki", "setting": "Rattus norvegicus [7]", "result": 0.16, "unit": "µM"}
    ]},
    {"smiles": "COC(=O)[C@@H]1C2CCC(C[C@@H]1OC(=O)c1ccccc1)N2S(=O)(=O)c1ccccc1", "note": "(some centres undefined)", "values": [
      {"measurement": "Ki", "setting": "[1]", "result": 20.8, "unit": "µM"},
      {"measurement": "Ki", "setting": "Rattus norvegicus [2]", "result": 61, "unit": "µM"}
    ]}
  ]
}
